From patent US20260115202A1, “TOPICAL COMPOSITIONS COMPRISING AN ESTETROL COMPONENT AND USE OF SAID COMPOSITIONS FOR WOUND HEALING” (NEURALIS SA, priority 2022, published 2026)
Entries after “also recorded” stand apart in the source; their conditions may differ.

What was measured:
[1] = tested on: murine dermal fibroblasts (MDFs); experiment: Scratch wound assay, murine dermal fibroblasts; format: cell-based, mouse; conditions: MDF, 24 hours, versus vehicle control
From the text: Primary human dermal fibroblasts (HDF) were isolated from abdominal skin or leg skin. Primary neonatal normal human epidermal keratinocytes (NHEK) were purchased (Lonza). Murine dermal fibroblasts (MDF), murine epidermal keratinocytes (MEK), murine peritoneal macrophages and murine bone marrow were isolated from C57/B16 (wt). NDb (Lepr+/−) or Db (Lepr−/−) mice.
Fibroblasts were isolated and cultured in DMEM supplemented with 10% heat inactivated FBS. 1% penicillin/streptomycin and 1% amphotericin B. At least 4 days prior to performing assays cells were switched to DMEM supplemented with 5% charcoal-stripped FBS.
Cells were seeded into 24 well plates and cultured to form a confluent monolayer, and then scratched with a 1 ml pipette tip. Wells were treated with E2, E4 and/or various estrogen receptor agonists and antagonists. […] A vehicle control containing the equivalent concentration of EtOH and/or DMSO was included, in addition to an untreated negative control. All treatments were diluted to working concentrations in media supplemented with 2% charcoal-stripped FBS. To visualise scratches at the defined endpoint, cells were stained with crystal violet and imaged on a Nikon E400 brightfield microscope. Scratch closure was determined from multiple independent measurements per well.

[2] = tested on: human dermal fibroblasts (HDF); experiment: Scratch wound assay, human dermal fibroblasts; format: cell-based; conditions: for concentration of optimal stimulation of fibroblast scratch wound closure / scratch closure compared to vehicle control: HDF; for scratch closure: HDF fifth donor, 24 hours, DMEM with 2% CS-FBS, 0% FBS or 2% FBS; for scratch closure compared to vehicle control: 36 hours
From the text: Primary human dermal fibroblasts (HDF) were isolated from abdominal skin or leg skin. Primary neonatal normal human epidermal keratinocytes (NHEK) were purchased (Lonza). Murine dermal fibroblasts (MDF), murine epidermal keratinocytes (MEK), murine peritoneal macrophages and murine bone marrow were isolated from C57/B16 (wt). NDb (Lepr+/-) or Db (Lepr-/-) mice. Fibroblasts were isolated and cultured in DMEM supplemented with 10% heat inactivated FBS. 1% penicillin/streptomycin and 1% amphotericin B. At least 4 days prior to performing assays cells were switched to DMEM supplemented with 5% charcoal-stripped FBS. Cells were seeded into 24 well plates and cultured to form a confluent monolayer, and then scratched with a 1 ml pipette tip. Wells were treated with E2, E4 and/or various estrogen receptor agonists and antagonists. […] A vehicle control containing the equivalent concentration of EtOH and/or DMSO was included, in addition to an untreated negative control. All treatments were diluted to working concentrations in media supplemented with 2% charcoal-stripped FBS. To visualise scratches at the defined endpoint, cells were stained with crystal violet and imaged on a Nikon E400 brightfield microscope. Scratch closure was determined from multiple independent measurements per well. Scratch assays were performed to quantify the effect of E2 and E4 at varying concentrations on HDF migration (FIG. 14). […] 10^-7M and 10^-6M (152%. 147% and 142% respectively). Thus, both E2 and E4 optimally stimulated fibroblast scratch wound closure at 10^-8M, with the higher magnitude of stimulation observed following E2 treatment. Next, an additional experiment was performed using HDF to a) further confirm the effects of E2 and E4 in fibroblasts from a fifth donor and b) explore the relative effect of including CS-FBS in the cell culture media. Three identical sets of scratch assays were performed (comparing vehicle to E2 or E4 treatment at 10^-7M) in DMEM containing either 2% CS-FBS. 0% FBS or 2% FBS (not CS).

MMP2 = experiment: Zymography of supernatants from human dermal fibroblasts; format: cell-based; conditions: HDFs from 3 independent donors, versus control
Description: In vitro cultured murine fibroblasts were treated with either E2, E4, DPN or PPT at 10^−7M. As previously reported. […] Next, zymography was performed on cell supernatants from HDFs treated with either E2 or E4, to evaluate the effect of E2 and E4 on cell-derived MMP activity. […] The magnitude of the effect (and statistical significance) was greater in cells treated with E4. No MMP9 activity was detected in any treatment group. Finally, we explored the effect of E2 and E4 on murine fibroblast expression of extracellular matrix genes, specifically collagen 1 (Colal) and fibronectin (Fn1) (FIG. 20).

[3] = tested on: mouse bone marrow derived macrophages (BMDM); experiment: M1-polarised murine bone marrow derived macrophages, qPCR of M1 markers; format: cell-based; conditions: for relative iNOS expression (M1 cell phenotype): formulations and E2/E4
Description: Bones were flushed with DMEM supplemented with 1% penicillin/streptomycin and 1% amphotericin B. Bone marrow cells were seeded into 12- or 6-well plates at 1×10^6 cells/ml in DMEM supplemented with 10% FBS and 10% L929-conditioned medium to induce differentiation. After 7-10 days, differentiated macrophages were treated with 10^−7M E2 or E4 in serum free growth medium for 16 hours and polarised to M1-type cells using 100 ng/ml IFN-γ and 1 μg/ml LPS. Following 6- or 24-hours polarisation cells were collected for RNA isolation or flow cytometry.
Following treatments, human and murine macrophages were collected in Trizol and RNA isolated using the Trizol plus RNA isolation kit (Invitrogen. Thermo Fisher) according to the manufacturer's instructions. RNA was reverse transcribed to cDNA using GoScript reverse transcriptase (Promega). Quantitative real-time PCR was carried out using 2×Takyon SYBR Green mastermix and a CFX Connect thermocycler. Primers for ERα and ERβ were used to explore changes in ER expression after treatment of MEK and MDF with E2 and E4. To investigate the effect of E2 and E4 on MEK differentiation and the expression of ECM proteins by MDF, primers for. Snail, keratin-1 and fibronectin, collagen I. MMP-2 and MMP-9 were used. Primers for INOS. IL-1B and Tnf-α or Ccl17 were used to assess M1/M2 polarisation status. Primers for GAPDH were used to normalise data. Relative gene expression was set to vehicle controls or M0 expression unless otherwise stated.
For follow up experiments murine bone marrow derived monocytes were isolated, differentiated (L929 media) and polarised to a pro-inflammatory M1 phenotype (IFN-γ and LPS: for 6 or 24 hours), and co-treated with either E2 or E4 at the optimal concentration identified in THP1 cells (10^−7: FIG. 24). […] Experiments were then undertaken with murine bone marrow derived monocytes differentiated to macrophages with 30 ng/ml MCSF, as opposed to L929 conditioned media.

[4] = L929 differentiated BMDM, M1 polarised 6 or 24 hours, 10^−7, versus vehicle
[5] = L929 differentiated BMDM, M1 polarised
[6] = MCSF differentiated BMDM, M1 polarised
[7] = MCSF differentiated BMDM, M1 polarised, 10^−7M, versus vehicle

Structure (SMILES)	scratch closure [1]	concentration of optimal stimulation of fibroblast scratch wound closure [2]	scratch closure ([2]; 10^−7M)	scratch closure compared to vehicle control ([2]; 10^−6M)	scratch closure compared to vehicle control ([2]; 10^−7M) [%]	scratch closure compared to vehicle control ([2]; 10^−9M)	MMP2 activity in cell supernatants (MMP2)	expression of M1 markers (iNOS, IL1-β, Tnf-α) [3, 4]	relative iNOS expression (M1 cell phenotype) [3, 5]	expression of M1 marker iNOS [3, 6]	expression of M1 markers (iNOS, IL1-β, Tnf-α) [3, 7]	scratch closure compared to vehicle control ([2]; 10^−8M) [%]
C[C@]12CC[C@@H]3c4ccc(O)cc4CC[C@H]3[C@@H]1CC[C@@H]2O [Formulation E2, 17β-estradiol, reference compound]	significantly increased scratch closure compared to vehicle control treatment	10^−8 M	promoted scratch closure	no difference in closure was observed	141	no difference in closure was observed	significantly reduced MMP2 activity versus control	trend toward decreased expression of a range of M1 markers	significantly dampened the M1 cell phenotype	statistically significant reduction in the M1 marker INOS	strong trend towards reduced expression	–
C[C@]12CC[C@@H]3c4ccc(O)cc4CC[C@H]3[C@@H]1[C@@H](O)[C@@H](O)[C@@H]2O [Formulation E4, 1,3,5 (10)-estratrien-3,15alpha, 16alpha, 17beta-tetrol]	significantly increased scratch closure compared to vehicle control treatment	10^−8 M	promoted scratch closure; also recorded: greatest promotion	142%	147	–	significantly reduced MMP2 activity versus control	trend toward decreased expression of a range of M1 markers	significantly dampened the M1 cell phenotype	statistically significant reduction in the M1 marker INOS	strong trend towards reduced expression	152
